Laboratory results as given in patent US20250230193A1, “CYCLIC COMPOUND HAVING SELECTIVE KRAS INHIBITORY EFFECT ON HRAS AND NRAS” (CHUGAI SEIYAKU KABUSHIKI KAISHA, priority 2022, published 2025).

Key:
[1] = molecular target: GDP-bound HRAS wild-type protein (Homo sapiens, UniProt P01112); assay: Binding to HRAS by surface plasmon resonance (SPR), Single Cycle Kinetics; details: KD ratio HRAS/KRAS, SPR, GDP-bound wild-type proteins
[2] = molecular target: GDP-bound NRAS wild-type protein (Homo sapiens, UniProt P01111); assay: Binding to NRAS by surface plasmon resonance (SPR), Single Cycle Kinetics; details: KD ratio NRAS/KRAS, SPR, GDP-bound wild-type proteins
GDP-bound NRAS wild-type protein, sequence (P01111 whole entry): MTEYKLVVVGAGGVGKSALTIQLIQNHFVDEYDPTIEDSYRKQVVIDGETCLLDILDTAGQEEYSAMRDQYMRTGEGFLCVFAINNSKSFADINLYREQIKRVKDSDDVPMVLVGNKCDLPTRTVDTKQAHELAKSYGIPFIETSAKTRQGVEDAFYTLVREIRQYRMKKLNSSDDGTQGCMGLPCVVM

GDP-bound HRAS wild-type protein, sequence (P01112 whole entry): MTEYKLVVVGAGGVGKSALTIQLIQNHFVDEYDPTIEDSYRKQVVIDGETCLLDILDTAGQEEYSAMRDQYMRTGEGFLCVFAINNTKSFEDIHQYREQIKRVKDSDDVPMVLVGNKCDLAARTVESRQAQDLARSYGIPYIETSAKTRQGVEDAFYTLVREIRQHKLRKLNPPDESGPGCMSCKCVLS

Row | Compound | HRAS/KRAS (ratio of KD value with respect to GDP-bound HRAS wild-type protein to KD value with respect to KRAS) [1] | NRAS/KRAS (ratio of KD value with respect to GDP-bound NRAS wild-type protein to KD value with respect to KRAS) [2]
1 | CCC[C@H]1C(=O)N[C@@H]([C@@H](C)CC)C(=O)N(C)CC(=O)N(C)[C@H]2C/C=C\CCN(C2=O)[C@@H](Cc2ccc(C)cc2)C(=O)N(C)CC(=O)N[C@@H](CCc2ccc(C(F)(F)F)c(OC)c2)C(=O)N2CC3(CC3)C[C@H]2C(=O)NC2(CC(C)(C)C2)C(=O)N(C)[C@@H](CC(C)C)C(=O)N(C)[C@H](C(=O)N(C)C)CC(=O)N1C [PP3013] | B (a compound having 3 or more and less than 10 is denoted as B) | AA (a compound having 20 or more is denoted as AA)
2 | CCC[C@H]1C(=O)N[C@@H](C2CCCCC2)C(=O)N(C)CC(=O)N(C)[C@H]2C/C=C\CCN(C2=O)[C@@H](Cc2ccc(C(F)(F)F)cc2)C(=O)N(C)CC(=O)N[C@@H](CCc2ccc(C(F)(F)F)c(Cl)c2)C(=O)N2C[C@H](OCC)C[C@H]2C(=O)NC2(CC(C)(C)C2)C(=O)N(C)[C@@H](CC(C)(C)C)C(=O)N(C)[C@H](C(=O)N(C)C)CC(=O)N1C [PP3014] | A (a compound having 10 or more and less than 20 is denoted as A) | AA (a compound having 20 or more is denoted as AA)
3 | CCC[C@H]1C(=O)N[C@@H](C2CCCCC2)C(=O)N(C)CC(=O)N(C)[C@H]2C/C=C\CCN(C2=O)[C@@H](Cc2ccc(C(F)(F)F)cc2)C(=O)N(C)CC(=O)N[C@@H](CCc2ccc(C(F)(F)F)c(Cl)c2)C(=O)N2C[C@H](OCC)C[C@H]2C(=O)NC2(CC(C)(C)C2)C(=O)N(C)[C@@H]([C@@H](C)CC)C(=O)N(C)[C@H](C(=O)N(C)C)CC(=O)N1C [PP3015] | A (a compound having 10 or more and less than 20 is denoted as A) | AA (a compound having 20 or more is denoted as AA)
4 | CCC[C@H]1C(=O)N[C@@H](C2CCCCC2)C(=O)N(C)CC(=O)N(C)[C@H]2C/C=C\CCN(C2=O)[C@@H](Cc2ccc(C(F)(F)F)cc2)C(=O)N(C)CC(=O)N[C@@H](CCc2ccc(C(F)(F)F)c(Cl)c2)C(=O)N2C[C@H](OCC)C[C@H]2C(=O)NC2(CC(C)(C)C2)C(=O)N(C)[C@@H](CC(C)C)C(=O)N(C)[C@H](C(=O)N(C)C)CC(=O)N1C [PP3017] | A (a compound having 10 or more and less than 20 is denoted as A) | AA (a compound having 20 or more is denoted as AA)
5 | CCC[C@H]1C(=O)N[C@@H](C2CCCCC2)C(=O)N(C)CC(=O)N(C)[C@H]2C/C=C\CCN(C2=O)[C@@H](Cc2ccc(C)cc2)C(=O)N(C)CC(=O)N[C@@H](CCc2ccc(C(F)(F)F)c(Cl)c2)C(=O)N2C[C@H](OCC)C[C@H]2C(=O)NC2(CC(C)(C)C2)C(=O)N(C)[C@@H](CC(C)(C)C)C(=O)N(C)[C@H](C(=O)N(C)C)CC(=O)N1C [PP3018] | B (a compound having 3 or more and less than 10 is denoted as B) | A (a compound having 10 or more and less than 20 is denoted as A)
6 | CCC[C@H]1C(=O)N[C@@H](C2CCCCC2)C(=O)N(C)CC(=O)N(C)[C@H]2C/C=C\CCN(C2=O)[C@@H](Cc2ccc(C)cc2)C(=O)N(C)CC(=O)N[C@@H](CCc2ccc(C(F)(F)F)c(Cl)c2)C(=O)N2C[C@H](OCC)C[C@H]2C(=O)NC2(CC(C)(C)C2)C(=O)N(C)[C@@H](CC(C)C)C(=O)N(C)[C@H](C(=O)N(C)C)CC(=O)N1C [PP3021] | A (a compound having 10 or more and less than 20 is denoted as A) | AA (a compound having 20 or more is denoted as AA)
